Test results reported in paper PMC7539012, “Hyperphosphorylated tau aggregation and cytotoxicity modulators screen identified prescription drugs linked to Alzheimer's disease and cognitive functions” (Scientific Reports, 2020).
Counter-ions that a name gives are not always drawn.

system: T1, 1N4R p-tau; assay: p-tau aggregation modulator screen of 1280-compound library (ThS fluorescence net change over 16 h); assay type: biochemical; set-up: key to PTAI>2SD: *: PTAI>2SD; key to PTAI>3SD: *: PTAI>3SD; settings: not given;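 on ThS net change: 30 µM compound with 6 µM p-tau over 16 h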
T1 construct: made in house; host or cells: E. coli (PIMAX system)

Compared with c1ccc2c(c1)Nc1ccccc1S2 [Phenothiazine], Cc1ccc(Cl)c(Nc2ccccc2C(=O)[O-])c1Cl.O.[Na+] is higher in ThS net change: 421 for the first, 436 for the second.

Going from C[C@]12CCC3[C@@H](CC[C@@H]4C[C@H](O)CC[C@]34C)[C@@H]1CCC2=O (stereo partly drawn) [3-alpha-Hydroxy-5-beta-androstan-17-one] to C[C@H](N[C@@H](CCc1ccccc1)C(=O)O)C(=O)N1CCC[C@H]1C(=O)O.O.O [Enalaprilat dihydrate], the ThS net change rises from 426 to 438.

First: O=C(c1ccc(OCCN2CCCCC2)cc1)c1c(-c2ccc(O)cc2)sc2cc(O)ccc12 [Raloxifene hydrochloride]
Second: CCN(CC)CCCC(C)Nc1c2ccc(Cl)cc2nc2ccc(OC)cc12.Cl.Cl.O.O (centres unmarked) [Quinacrine dihydrochloride hydrate]
The ThS net change of the first is lower: 133 for the first, 203 for the second.

First: Nc1nc2[nH]cc(CCc3ccc(C(=O)N[C@@H](CCC(=O)O)C(=O)O)cc3)c2c(=O)[nH]1 [Pemetrexed disodium]
Second: CN(C)CCc1c[nH]c2ccc(Cn3cncn3)cc12 [Rizatriptan benzoate]
The ThS net change of the first is lower: 441 for the first, 473 for the second.

With COc1cc(C)c(/C=C/C(C)=C/C=C/C(C)=C/C(=O)O)c(C)c1C [Acitretin] the ThS net change was 316.

In the case of O=C(c1ccc(OCCN2CCCCC2)cc1)c1c(-c2ccc(O)cc2)sc2cc(O)ccc12 [Raloxifene hydrochloride], the “PTAI>2SD” value is reported as “*”.

same assay, conditions: 1280-compound library screen; ThS fluorescence net change over 16 h

Compared with CNCCCC1c2ccccc2C=Cc2ccccc21 [Protriptyline hydrochloride], CC(CCc1ccccc1)NC(C)C(O)c1ccc(O)cc1 (centres unmarked) [Nylidrin] is lower in ThS net change: 412 for the first, 408 for the second.

Compared with [H]/N=C(/NCCCCC)N/N=C/c1c[nH]c2ccc(OC)cc12 [Tegaserod maleate], COc1ccccc1N1CCN(CCCNc2cc(=O)n(C)c(=O)n2C)CC1 [Urapidil hydrochloride] is higher in ThS net change: 379 for the first, 388 for the second.

Compared with NC(=O)c1cccnc1 [Nicotinamide], Cc1cc(C(=O)NNCc2ccccc2)no1 [Isocarboxazid] is lower in ThS net change: 406 for the first, 400 for the second.

Compared with CN(N=O)C(=O)N[C@H]1C(O)O[C@H](CO)[C@@H](O)[C@@H]1O (mixture of isomers) [Streptozotocin], CC(=O)OCC(=O)[C@@]1(OC(C)=O)[C@@H](C)C[C@H]2[C@@H]3C[C@H](F)C4=CC(=O)C=C[C@]4(C)[C@@]3(F)[C@@H](O)C[C@@]21C [Diflorasone Diacetate] is higher in ThS net change: 384 for the first, 407 for the second.

Compared with CCOC(=O)C1=C(C)NC(C)=C(C(=O)OC)C1c1cccc(Cl)c1Cl (centres unmarked) [Felodipine], Nc1nnc(-c2cccc(Cl)c2Cl)c(N)n1 [Lamotrigine] is lower in ThS net change: 405 for the first, 389 for the second.

Going from c1ccc2c(c1)OCC(C1=NCCN1)O2 (centres unmarked) [Idazoxan hydrochloride] to CCOCCn1c(N2CCCN(C)CC2)nc2ccccc21 [Emedastine], the ThS net change rises from 386 to 387.

First: COc1ccc(C(=O)N2CCCC2=O)cc1 [Aniracetam]
Second: COc1cc(N)c(Cl)cc1C(=O)NC1CCN(CCCOc2ccc(F)cc2)CC1OC (centres unmarked) [Cisapride]
The ThS net change of the first is higher: 408 for the first, 397 for the second.

Compared with CC#C[C@]1(O)CC[C@H]2[C@@H]3CCC4=CC(=O)CCC4=C3[C@@H](c3ccc(N(C)C)cc3)C[C@@]21C [Mifepristone], CSc1ccc2c(c1)C(N1CCN(C)CC1)Cc1ccccc1S2.O=C(O)/C=C\C(=O)O (centres unmarked) [Methiothepin maleate] is lower in ThS net change: 382 for the first, 379 for the second.

Going from CC1=C(/C=C/C(C)=C/C=C/C(C)=C\C(=O)O)C(C)(C)CCC1 [Isotretinoin] to COc1ccc(/C=C/C(=O)Nc2ccccc2C(=O)O)cc1OC [Tranilast], the ThS net change rises from 389 to 392.

Going from Cn1cnc2c1c(=O)[nH]c(=O)n2C [Theobromine] to Cc1onc(-c2ccccc2)c1-c1ccc(S(N)(=O)=O)cc1 [Valdecoxib], the ThS net change rises from 392 to 393.

same assay, conditions: 1280-compound library screen; […]

In the case of CC(=O)OCC(=O)[C@H]1CC[C@H]2[C@@H]3CC[C@H]4C[C@H](O)CC[C@]4(C)[C@H]3C(=O)C[C@]12C [Alfadolone acetate], the ThS net change is reported as 396.

same assay, conditions: flag: p-tau aggregation inhibitor, ThS net change more than 2 SD from mean

For CN(C)c1ccc(O)c2c1C[C@H]1C[C@H]3[C@H](N(C)C)C(O)=C(C(N)=O)C(=O)[C@@]3(O)C(O)=C1C2=O [Minocycline hydrochloride], the “PTAI>2SD” value was “*”.
C=C1c2c(Cl)ccc(O)c2C(=O)C2=C(O)[C@]3(O)C(=O)C(C(N)=O)=C(O)[C@@H](N(C)C)[C@@H]3[C@@H](O)[C@H]12.O=C(O)c1cc(S(=O)(=O)O)ccc1O [Meclocycline sulfosalicylate] was tested, and the “PTAI>2SD” value was “*”.

same assay, conditions: flag: p-tau aggregation inhibitor, ThS net change more than 3 SD from mean

For Cc1cc(/C=C/c2ccc3cc(N(C)C)ccc3[n+]2C)c(C)n1-c1ccccc1 [Pyrvinium pamoate], the “PTAI>3SD” value was “*”.

same assay, conditions: library screen, ThS fluorescence net change over 16 h with p-tau

First: COCCOC(=O)C1=C(C)NC(C)=C(C(=O)OC/C=C/c2ccccc2)C1c1cccc([N+](=O)[O-])c1 (centres unmarked) [Cilnidipine]
Second: CC(=O)c1ccc2c(c1)N(CCCN(C)C)c1ccccc1S2.O=C(O)/C=C\C(=O)O [Acetopromazine maleate salt]
The ThS net change of the first is lower: 230 for the first, 267 for the second.

First: CN(C)CCCN1c2ccccc2Sc2ccc(Cl)cc21 [Chlorpromazine hydrochloride]
Second: OCCOCCN1CCN(C(c2ccccc2)c2ccc(Cl)cc2)CC1 (centres unmarked) [Hydroxyzine dihydrochloride]
The ThS net change of the first is higher: 317 for the first, 309 for the second.

First: CN(C)c1ccc(O)c2c1C[C@H]1C[C@H]3[C@H](N(C)C)C(O)=C(C(N)=O)C(=O)[C@@]3(O)C(O)=C1C2=O [Minocycline hydrochloride]
Second: C=C1c2c(Cl)ccc(O)c2C(=O)C2=C(O)[C@]3(O)C(=O)C(C(N)=O)=C(O)[C@@H](N(C)C)[C@@H]3[C@@H](O)[C@H]12.O=C(O)c1cc(S(=O)(=O)O)ccc1O [Meclocycline sulfosalicylate]
The ThS net change of the first is lower: 121 for the first, 171 for the second.

First: Cc1cc(/C=C/c2ccc3cc(N(C)C)ccc3[n+]2C)c(C)n1-c1ccccc1 [Pyrvinium pamoate]
Second: CCn1cc(C(=O)O)c(=O)c2cc3c(cc21)OCO3 [Oxolinic acid]
The ThS net change of the first is lower: -379 for the first, 313 for the second.

same assay, conditions: p-tau aggregation modulator screen of 1280-compound library; ThS fluorescence net change

Compared with CC(C)(C)NCC(O)c1cc(O)cc(O)c1.CC(C)(C)NCC(O)c1cc(O)cc(O)c1.O=S(=O)(O)O (centres unmarked) [Terbutaline hemisulfate], CC(C(O)c1ccc(O)cc1)N1CCC(Cc2ccccc2)CC1.O=C(O)C(O)C(O)C(=O)O (centres unmarked) [Ifenprodil tartrate] is higher in ThS net change: 339 for the first, 361 for the second.

Compared with C[N+](C)(CCOc1ccccc1)Cc1ccccc1.O=C([O-])c1cc2ccccc2cc1O [Bephenium hydroxynaphthoate], COC(=O)C1=C(C)NC(C)=C(C(=O)OCCN(C)Cc2ccccc2)C1c1cccc([N+](=O)[O-])c1 (centres unmarked) [Nicardipine hydrochloride] is lower in ThS net change: 370 for the first, 330 for the second.

Compared with CNCCC(Oc1ccc(C(F)(F)F)cc1)c1ccccc1 (centres unmarked) [Fluoxetine hydrochloride], Cl.Nc1nc2ccc(OC(F)(F)F)cc2s1 [Riluzole hydrochloride] is lower in ThS net change: 370 for the first, 353 for the second.

First: CN(C)CCCC1(c2ccc(F)cc2)OCc2cc(C#N)ccc21 (centres unmarked) [Citalopram Hydrobromide]
Second: CC1=NS(=O)(=O)c2cc(Cl)ccc2N1 [Diazoxide]
The ThS net change of the first is lower: 351 for the first, 354 for the second.

First: Cn1cnc([N+](=O)[O-])c1Sc1ncnc2nc[nH]c12 [Azathioprine]
Second: Nc1nc(NC2CC2)c2ncn([C@H]3C=C[C@@H](CO)C3)c2n1 [Abacavir Sulfate]
The ThS net change of the first is higher: 367 for the first, 363 for the second.

In the case of C[C@]12C=CC(=O)C=C1CC[C@@H]1[C@@H]2C(=O)C[C@@]2(C)[C@H]1CC[C@]2(O)C(=O)CO [Prednisone], the ThS net change is reported as 366.

same assay, conditions: p-tau aggregation modulator screen of 1280-compound library; […]

First: Deoxycorticosterone
Second: COc1cc2c(cc1OC)C(C)NCC2.Cl (centres unmarked)
The ThS net change of the first is lower: 346 for the first, 359 for the second.

Compared with COc1cc2nc(N3CCN(C(=O)c4ccco4)CC3)nc(N)c2cc1OC [Prazosin hydrochloride], C[C@]12CCC(=O)C=C1CC[C@@H]1[C@@H]2C(=O)C[C@]2(C)C(=O)CC[C@@H]12 [Adrenosterone] is lower in ThS net change: 367 for the first, 334 for the second.

For C[N+]1(C)CCCC(OC(=O)C(O)(c2ccccc2)c2ccccc2)C1 (centres unmarked) [Mepenzolate bromide], the ThS net change was 366.

same assay, conditions: p-tau aggregation modulator screen of the compound library, ThS fluorescence net change

First: N=C(N)c1ccc(OCCCCCOc2ccc(C(=N)N)cc2)cc1 [Pentamidine isethionate]
Second: O=C(OCCOCCO)c1ccccc1Nc1cccc(C(F)(F)F)c1 [Etofenamate]
The ThS net change of the first is higher: 479 for the first, 425 for the second.

Compared with N#CC(c1ccc(Cl)cc1)c1c(Cl)cc(-n2ncc(=O)[nH]c2=O)cc1Cl (centres unmarked) [Diclazuril], Cc1cc(C(C#N)c2ccc(Cl)cc2)c(Cl)cc1NC(=O)c1cc(I)cc(I)c1O (centres unmarked) [Closantel] is lower in ThS net change: 507 for the first, 423 for the second.

First: CCCc1nc(C)c2c(=O)[nH]c(-c3cc(S(=O)(=O)N4CCN(CC)CC4)ccc3OCC)nn12 [Vardenafil]
Second: CCCCNc1c(C(=O)OCC)c(C)nc2c1cnn2CC.Cl [Tracazolate hydrochloride]
The ThS net change of the first is lower: 414 for the first, 440 for the second.

Going from CC(=O)[C@H]1CC[C@H]2[C@@H]3CC=C4C[C@@H](O)CC[C@]4(C)[C@H]3CC[C@]12C [Pregnenolone] to CC(=O)O[C@]1(C(C)=O)CC[C@H]2[C@@H]3C=C(C)C4=CC(=O)CC[C@@H]4[C@H]3CC[C@@]21C [Nomegestrol acetate], the ThS net change falls from 482 to 463.

Compared with Cc1ccnc2c1NC(=O)c1cccnc1N2C1CC1 [Nevirapine], CN1CCC(=C2c3ccccc3CCc3cccnc32)CC1 [Azatadine maleate] is lower in ThS net change: 427 for the first, 417 for the second.

Compared with Cn1c(=O)c2c(ncn2C)n(C)c1=O [Caffeine], Cn1c(=O)c2c(ncn2CC(=O)O)n(C)c1=O [Acefylline] is lower in ThS net change: 428 for the first, 416 for the second.

Going from Cc1ccc(S(=O)(=O)NC(=O)NN2CCCCCC2)cc1 [Tolazamide] to CCCNC(=O)NS(=O)(=O)c1ccc(Cl)cc1 [Chlorpropamide], the ThS net change falls from 458 to 425.

First: Nc1c2c(nc3ccccc13)CCCC2O.O=C(O)/C=C\C(=O)O (racemic) [Hydroxytacrine maleate (R,S)]
Second: CN1CCN2c3ncccc3Cc3ccccc3C2C1 (centres unmarked) [Mirtazapine]
The ThS net change of the first is lower: 423 for the first, 534 for the second.

Going from CN(C)CCn1nnnc1SCC1=C(C(=O)O)N2C(=O)[C@@H](NC(=O)Cc3csc(N)n3)[C@H]2SC1 [Cefotiam hydrochloride] to CC[C@H]1OC(=O)[C@H](C)[C@@H](O[C@H]2C[C@@](C)(OC)[C@@H](O)[C@H](C)O2)[C@H](C)[C@@H](O[C@@H]2O[C@H](C)C[C@H](N(C)C)[C@H]2O)[C@](C)(OC)C[C@@H](C)C(=O)[C@H](C)[C@@H](O)[C@]1(C)O [Clarithromycin], the ThS net change falls from 423 to 416.

Work on CC(C)(C#N)c1cc(Cn2cncn2)cc(C(C)(C)C#N)c1 [Anastrozole] yielded a ThS net change of 484.
